Results as given in PubChem BioAssay AID248 (DTP/NCI, 2004).
“And” between values parts separate entries of the source, which are not always exact repeats. Identical values can stand only once. Toxic doses and inconclusive results are not listed. No stated cut-off is given here; in the data, active means T/C of 150% or more; inactive means T/C below 125%.

Tested on: L1210 leukemia ip in BDF1 mice, survival T/C
Test: NCI In Vivo Anticancer Drug Screen. Data for tumor model L1210 Leukemia (intraperitoneal) in B6D2F1 (BDF1) mice
Conditions: higher = longer survival
In short: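 Tumor was transplanted into mice, which were then dosed with test compound or vehicle alone. Survival was recorded for each group, and the treated figure was expressed relative to the control figure.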

[1] = endpoint: mean survival time, dose: 100.0 mg/kg/injection, schedule: Q04DX003 (ip), vehicle: Klucel (hydroxypropylcellulose) (HPC)
[2] = endpoint: mean survival time, dose: 200.0 mg/kg/injection, schedule: Q04DX003 (ip), vehicle: Klucel (hydroxypropylcellulose) (HPC)
[3] = endpoint: mean survival time, dose: 100.0 mg/kg/injection, schedule: Q01DX001 (ip), vehicle: saline
[4] = endpoint: mean survival time, dose: 200.0 mg/kg/injection, schedule: Q01DX001 (ip), vehicle: saline
[5] = endpoint: mean survival time, dose: 100.0 mg/kg/injection, schedule: Q01DX001 (ip), vehicle: Klucel (hydroxypropylcellulose) (HPC)
[6] = endpoint: mean survival time, dose: 200.0 mg/kg/injection, schedule: Q01DX001 (ip), vehicle: Klucel (hydroxypropylcellulose) (HPC)
[7] = endpoint: mean survival time, dose: 400.0 mg/kg/injection, schedule: Q01DX001 (ip), vehicle: Klucel (hydroxypropylcellulose) (HPC)
[8] = endpoint: mean survival time, dose: 100.0 mg/kg/injection, schedule: Q04DX002 (ip), vehicle: Klucel (hydroxypropylcellulose) (HPC)
[9] = endpoint: mean survival time, dose: 200.0 mg/kg/injection, schedule: Q04DX002 (ip), vehicle: Klucel (hydroxypropylcellulose) (HPC)
[10] = endpoint: mean survival time, dose: 400.0 mg/kg/injection, schedule: Q04DX002 (ip), vehicle: Klucel (hydroxypropylcellulose) (HPC)
[11] = endpoint: mean survival time, dose: 100.0 mg/kg/injection, schedule: Q01DX009 (ip), vehicle: Klucel (hydroxypropylcellulose) (HPC)
[12] = endpoint: mean survival time, dose: 400.0 mg/kg/injection, schedule: Q04DX003 (ip), vehicle: Klucel (hydroxypropylcellulose) (HPC)
[13] = endpoint: mean survival time, dose: 200.0 mg/kg/injection, schedule: Q01DX009 (ip), vehicle: Klucel (hydroxypropylcellulose) (HPC)
[14] = endpoint: mean survival time, dose: 400.0 mg/kg/injection, schedule: Q01DX009 (ip), vehicle: Klucel (hydroxypropylcellulose) (HPC)
[15] = endpoint: mean survival time, dose: 100.0 mg/kg/injection, schedule: Q01DX009 (ip), vehicle: saline with Tween-80
[16] = endpoint: mean survival time, dose: 200.0 mg/kg/injection, schedule: Q01DX009 (ip), vehicle: saline with Tween-80
[17] = endpoint: mean survival time, dose: 100.0 mg/kg/injection, schedule: Q04DX003 (ip), vehicle: saline with Tween-80

Measured: T/C

CCOc1ccc2c(ccc(C)[n+]2C)c1
inactive: endpoint: mean survival time, dose: 75.0 mg/kg/injection, schedule: Q01DX001 (ip), vehicle: carboxymethylcellulose (CMC) 108 % of control | endpoint: mean survival time, dose: 150.0 mg/kg/injection, schedule: Q01DX001 (ip), vehicle: carboxymethylcellulose (CMC) 109 % of control

CCCCCCCCCCCCCCCc1cc(=O)n(-c2ccc(NC(=O)/C=C/C(=O)O)cc2)n1C
inactive: [1] 98 % of control | [2] 94 % of control

NC(=O)CS
inactive: [3] 96 % of control | [4] 105 % of control

S=C(Nc1nccs1)Nc1nccs1
inactive: [5] 100 % of control | [6] 97 % of control | [7] 89 % of control

COC1OC(COC(=O)c2ccccc2)C(OC(=O)c2ccccc2)C(OC(=O)c2ccccc2)C1OS(=O)(=O)c1ccc(C)cc1 (centres undefined)
inactive: [8] 103 % of control | [9] 88 % of control | [10] 88 % of control

CC[CH](C)[Hg][c]1cccc2ccccc12 (centres undefined)
inactive: endpoint: mean survival time, dose: 25.0 mg/kg/injection, schedule: Q01DX009 (ip), vehicle: Klucel (hydroxypropylcellulose) (HPC) 96 % of control | endpoint: mean survival time, dose: 50.0 mg/kg/injection, schedule: Q01DX009 (ip), vehicle: Klucel (hydroxypropylcellulose) (HPC) 97 % of control | [11] 97 % of control and 100 % of control | [1] 100 % of control | [2] 97 % of control | [12] 96 % of control

CC(=Nc1ccccc1)C1=C(O)C(Cc2ccccc2)NC1=O (centres undefined)
inactive: endpoint: mean survival time, dose: 50.0 mg/kg/injection, schedule: Q01DX001 (ip), vehicle: carboxymethylcellulose (CMC) 101 % of control | endpoint: mean survival time, dose: 100.0 mg/kg/injection, schedule: Q01DX001 (ip), vehicle: carboxymethylcellulose (CMC) 103 % of control | endpoint: mean survival time, dose: 178.0 mg/kg/injection, schedule: Q01DX001 (ip), vehicle: carboxymethylcellulose (CMC) 101 % of control and 102 % of control | endpoint: mean survival time, dose: 200.0 mg/kg/injection, schedule: Q01DX001 (ip), vehicle: carboxymethylcellulose (CMC) 120 % of control | endpoint: mean survival time, dose: 267.0 mg/kg/injection, schedule: Q01DX001 (ip), vehicle: carboxymethylcellulose (CMC) 101 % of control and 109 % of control | endpoint: mean survival time, dose: 400.0 mg/kg/injection, schedule: Q01DX001 (ip), vehicle: carboxymethylcellulose (CMC) 101 % of control and 117 % of control

CC(=O)c1cccc(NC(=O)CCCCCCCCC(=O)Nc2cccc(C(C)=O)c2)c1
inactive: [11] 96 % of control | [13] 91 % of control | [14] 94 % of control

Cc1ccc(Cl)cc1NC(=S)Nc1ccccc1
inactive: [8] 100 % of control | [9] 103 % of control | [10] 106 % of control

O=[N+]([O-])c1c(Cl)ccc2c(Cl)ccnc12
inactive: endpoint: mean survival time, dose: 100.0 mg/kg/injection, schedule: Q04DX003 (ip), vehicle: gum acacia 111 % of control | endpoint: mean survival time, dose: 200.0 mg/kg/injection, schedule: Q04DX003 (ip), vehicle: gum acacia 91 % of control

O=C(NC(=S)Nc1cccc(Cl)c1)c1cccc([N+](=O)[O-])c1
inactive: [11] 103 % of control | [1] 105 % of control | [13] 100 % of control | [2] 97 % of control | [14] 100 % of control | [12] 95 % of control

CC1=C(/C=C/C(C)=C/C=C/C(C)=C/C(=O)O)C(C)(C)CCC1
inactive: endpoint: mean survival time, dose: 88.0 mg/kg/injection, schedule: Q01DX009 (ip), vehicle: steriod suspending solution 89 % of control | [15] 100 % of control | endpoint: mean survival time, dose: 200.0 mg/kg/injection, schedule: Q01DX001 (sc), vehicle: steriod suspending solution 104 % of control | [16] 94 % of control | endpoint: mean survival time, dose: 400.0 mg/kg/injection, schedule: Q01DX001 (sc), vehicle: steriod suspending solution 98 % of control | endpoint: mean survival time, dose: 400.0 mg/kg/injection, schedule: Q01DX009 (ip), vehicle: saline with Tween-80 91 % of control | endpoint: median survival time, dose: 25.0 mg/kg/injection, schedule: Q01DX009 (ip), vehicle: other 111 % of control | endpoint: median survival time, dose: 50.0 mg/kg/injection, schedule: Q01DX009 (ip), vehicle: other 100 % of control | endpoint: median survival time, dose: 100.0 mg/kg/injection, schedule: Q01DX009 (ip), vehicle: other 100 % of control | endpoint: median survival time, dose: 200.0 mg/kg/injection, schedule: Q01DX009 (ip), vehicle: other 100 % of control

O=C(O)c1ccc(N=Cc2ccc([N+](=O)[O-])s2)cc1
inactive: endpoint: mean survival time, dose: 25.0 mg/kg/injection, schedule: Q04DX003 (ip), vehicle: saline with Tween-80 94 % of control | endpoint: mean survival time, dose: 50.0 mg/kg/injection, schedule: Q04DX003 (ip), vehicle: saline with Tween-80 100 % of control | [1] 103 % of control | [17] 102 % of control

O=C(O)c1ccc(Oc2ccc(C(=O)O)cc2)cc1
inactive: [11] 103 % of control | [1] 97 % of control | [13] 109 % of control | [2] 100 % of control | [14] 100 % of control | [12] 105 % of control

COC(=O)CCCN1CC2C=C(C#N)C1C(C(=O)OC)C2 (centres undefined)
inactive: endpoint: mean survival time, dose: 150.0 mg/kg/injection, schedule: Q01DX001 (ip), vehicle: saline 93 % of control | endpoint: mean survival time, dose: 300.0 mg/kg/injection, schedule: Q01DX001 (ip), vehicle: saline 93 % of control

COC(=O)/C(O)=C/C(N)=O.COC(=O)/C(O)=C/C(N)=O.[Cu]
inactive: endpoint: mean survival time, dose: 9.37 mg/kg/injection, schedule: Q01DX001 (ip), vehicle: carboxymethylcellulose (CMC) 89 % of control | endpoint: mean survival time, dose: 18.75 mg/kg/injection, schedule: Q01DX001 (ip), vehicle: carboxymethylcellulose (CMC) 87 % of control | endpoint: mean survival time, dose: 37.5 mg/kg/injection, schedule: Q01DX001 (ip), vehicle: carboxymethylcellulose (CMC) 96 % of control

CC(=O)OC(c1ccccc1)C(C)C (centres undefined)
inactive: endpoint: mean survival time, dose: 100.0 mg/kg/injection, schedule: Q04DX002 (ip), vehicle: saline 107 % of control | endpoint: mean survival time, dose: 200.0 mg/kg/injection, schedule: Q04DX002 (ip), vehicle: saline 96 % of control | endpoint: mean survival time, dose: 400.0 mg/kg/injection, schedule: Q04DX002 (ip), vehicle: saline 103 % of control

C=CNC(=O)C(c1ccccc1)N1CCCCC1 (centres undefined)
inactive: [5] 102 % of control | [6] 97 % of control | [7] 103 % of control

CC(O)CNC1CCC(C)CC1 (centres undefined)
inactive: endpoint: mean survival time, dose: 75.0 mg/kg/injection, schedule: Q01DX001 (ip), vehicle: acid diluted with saline 96 % of control | endpoint: mean survival time, dose: 150.0 mg/kg/injection, schedule: Q01DX001 (ip), vehicle: acid diluted with saline 100 % of control

Clc1ccc(Cl)c(SSc2cc(Cl)ccc2Cl)c1
inactive: [3] 101 % of control | [4] 98 % of control | endpoint: mean survival time, dose: 400.0 mg/kg/injection, schedule: Q01DX001 (ip), vehicle: saline 89 % of control

c1ccc(Cc2[nH]c3ccccc3c2-c2ccccc2)cc1
inactive: [15] 93 % of control | endpoint: mean survival time, dose: 100.0 mg/kg/injection, schedule: Q04DX002 (ip), vehicle: saline with Tween-80 109 % of control | [16] 87 % of control | endpoint: mean survival time, dose: 200.0 mg/kg/injection, schedule: Q04DX002 (ip), vehicle: saline with Tween-80 100 % of control | endpoint: mean survival time, dose: 400.0 mg/kg/injection, schedule: Q04DX002 (ip), vehicle: saline with Tween-80 90 % of control

c1cc2c3c(c1)/C(=N\N=C1/CCN4CCCc5cccc1c54)CCN3CCC2
inactive: endpoint: mean survival time, dose: 50.0 mg/kg/injection, schedule: Q01DX009 (ip), vehicle: saline with Tween-80 91 % of control | [15] 89 % of control | [17] 92 % of control | [16] 92 % of control | endpoint: mean survival time, dose: 200.0 mg/kg/injection, schedule: Q04DX003 (ip), vehicle: saline with Tween-80 89 % of control
